In PubChem BioAssay AID1259407 (Chemical Carcinogenesis Research Information System (CCRIS), 2018):
The source made the active and inactive calls. How the calls were made is not given here.

Tested on: CCRIS mutagenicity, Ames/micronucleus/aberration tests
Test: CCRIS mutagenicity studies
Conditions: Test System: AMES SALMONELLA TYPHIMURIUM, Method: PREINCUBATION
[1] = Strain/Indicator: TA98, Metabolic Activation: NONE
[2] = Strain/Indicator: TA100, Metabolic Activation: NONE
[3] = Strain/Indicator: TA1535, Metabolic Activation: NONE

Measured: mutagenic call

CCCCCCCCOc1ccc(C(=O)O)cc1
inactive: Strain/Indicator: TA97, Metabolic Activation: HAMSTER, LIVER, S-9, AROCLOR 1254 (10%) inactive; negative | Strain/Indicator: TA97, Metabolic Activation: HAMSTER, LIVER, S-9, AROCLOR 1254 (30%) inactive; negative | Strain/Indicator: TA97, Metabolic Activation: NONE inactive; negative | Strain/Indicator: TA97, Metabolic Activation: RAT, LIVER, S-9, AROCLOR 1254 (10%) inactive; negative | Strain/Indicator: TA97, Metabolic Activation: RAT, LIVER, S-9, AROCLOR 1254 (30%) inactive; negative | Strain/Indicator: TA98, Metabolic Activation: HAMSTER, LIVER, S-9, AROCLOR 1254 (10%) inactive; negative | Strain/Indicator: TA98, Metabolic Activation: HAMSTER, LIVER, S-9, AROCLOR 1254 (30%) inactive; negative | [1] inactive; negative | Strain/Indicator: TA98, Metabolic Activation: RAT, LIVER, S-9, AROCLOR 1254 (10%) inactive; negative | Strain/Indicator: TA98, Metabolic Activation: RAT, LIVER, S-9, AROCLOR 1254 (30%) inactive; negative | Strain/Indicator: TA100, Metabolic Activation: HAMSTER, LIVER, S-9, AROCLOR 1254 (10%) inactive; negative | Strain/Indicator: TA100, Metabolic Activation: HAMSTER, LIVER, S-9, AROCLOR 1254 (30%) inactive; negative | [2] inactive; negative | Strain/Indicator: TA100, Metabolic Activation: RAT, LIVER, S-9, AROCLOR 1254 (10%) inactive; negative | Strain/Indicator: TA100, Metabolic Activation: RAT, LIVER, S-9, AROCLOR 1254 (30%) inactive; negative | Strain/Indicator: TA1535, Metabolic Activation: HAMSTER, LIVER, S-9, AROCLOR 1254 (10%) inactive; negative | Strain/Indicator: TA1535, Metabolic Activation: HAMSTER, LIVER, S-9, AROCLOR 1254 (30%) inactive; negative | [3] inactive; negative | Strain/Indicator: TA1535, Metabolic Activation: RAT, LIVER, S-9, AROCLOR 1254 (10%) inactive; negative | Strain/Indicator: TA1535, Metabolic Activation: RAT, LIVER, S-9, AROCLOR 1254 (30%) inactive; negative

CN1C(=O)C(O)CC1c1cccnc1 (stereo not given)
inactive: [1] inactive; negative | Strain/Indicator: TA98, Metabolic Activation: RAT, LIVER, S-9, AROCLOR 1254 (5%) inactive; negative | [2] inactive; negative | Strain/Indicator: TA100, Metabolic Activation: RAT, LIVER, S-9, AROCLOR 1254 (5%) inactive; negative | [3] inactive; negative | Strain/Indicator: TA1535, Metabolic Activation: RAT, LIVER, S-9, AROCLOR 1254 (5%) inactive; negative | Strain/Indicator: TA1537, Metabolic Activation: NONE inactive; negative | Strain/Indicator: TA1537, Metabolic Activation: RAT, LIVER, S-9, AROCLOR 1254 (5%) inactive; negative | Strain/Indicator: TA1538, Metabolic Activation: NONE inactive; negative | Strain/Indicator: TA1538, Metabolic Activation: RAT, LIVER, S-9, AROCLOR 1254 (5%) inactive; negative
